Data: patent US11739100B2, “2,3-dihydro-1h-imidazo{1,2-a}pyrimidin-5-one and this 1,2,3,4-tetrahydropyrimido{1,2-a}pyrimidin-6-one derivatives comprising a substituted morpholine, preparation thereof and pharmaceutical use thereof” (SANOFI, priority 2012, dated 2023)

Target: T1, recombinant Vps34 (Homo sapiens, UniProt Q8NEB9)
T1 construct: purchased Invitrogen PV5126
Experiment: Phosphorylation of phosphatidylinositol (PI) by Vps34 in vitro, ADP detected by TR-FRET (HTRF Transcreener ADP)
Assay type: biochemical
Settings: 10 μM ATP, 55 μg/ml PI, approximately 3 nM Vps34, 1 hour at ambient temperature; absolute IC50, mean of two independent experiments; read-out: IC50 activity range

T1 sequence (Q8NEB9 whole entry): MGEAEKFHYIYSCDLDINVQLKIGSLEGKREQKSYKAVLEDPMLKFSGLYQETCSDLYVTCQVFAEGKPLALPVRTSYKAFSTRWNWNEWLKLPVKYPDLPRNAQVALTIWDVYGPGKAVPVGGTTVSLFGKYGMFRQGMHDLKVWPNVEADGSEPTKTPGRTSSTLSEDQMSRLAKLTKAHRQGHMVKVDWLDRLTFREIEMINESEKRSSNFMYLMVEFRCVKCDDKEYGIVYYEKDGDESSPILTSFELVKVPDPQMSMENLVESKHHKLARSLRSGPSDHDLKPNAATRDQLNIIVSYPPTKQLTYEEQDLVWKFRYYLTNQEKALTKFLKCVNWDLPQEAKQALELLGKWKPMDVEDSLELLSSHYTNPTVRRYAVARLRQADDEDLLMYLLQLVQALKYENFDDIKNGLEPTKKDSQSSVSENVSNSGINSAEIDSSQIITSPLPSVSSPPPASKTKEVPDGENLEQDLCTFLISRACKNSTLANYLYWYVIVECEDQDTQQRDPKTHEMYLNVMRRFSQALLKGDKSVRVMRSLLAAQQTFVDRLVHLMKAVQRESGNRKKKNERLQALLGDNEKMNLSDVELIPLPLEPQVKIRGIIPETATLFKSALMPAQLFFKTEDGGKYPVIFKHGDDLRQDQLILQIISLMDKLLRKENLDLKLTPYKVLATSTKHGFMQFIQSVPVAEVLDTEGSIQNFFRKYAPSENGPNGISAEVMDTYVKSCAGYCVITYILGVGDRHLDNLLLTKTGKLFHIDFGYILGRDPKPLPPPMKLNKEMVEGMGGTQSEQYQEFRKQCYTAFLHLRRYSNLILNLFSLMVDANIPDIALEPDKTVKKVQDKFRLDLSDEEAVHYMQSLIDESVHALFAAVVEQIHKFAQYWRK

Row | SMILES | IC50
1 | Cc1noc(CN2c3nc(N4CCOC[C@H]4C)cc(=O)n3CC[C@H]2C(F)(F)F)n1 [Example 17, (S)-2-((R)-3-Methyl-morpholin-4-yl)-9-(3-methyl-[1,2,4]oxadiazol-5-yl-methyl)-8-trifluoromethyl-6,7,8,9-tetrahydro-pyrimido[1,2-a]-pyrimidin-4-one] | < 0.01 µM
2 | C[C@@H]1COCCN1c1nc2n(c(=O)c1F)CC[C@@H](C(F)(F)F)N2CC(=O)C1CCOCC1 [Example 18, (S)-3-Fluoro-2-((R)-3-methylmorpholin-4-yl)-9-[2-oxo-2-(tetrahydro-pyran-4-yl)ethyl]-8-trifluoromethyl-6,7,8,9-tetrahydro-pyrimido[1,2-a]-pyrimidin-4-one] | < 0.01 µM
3 | Cc1noc(CN2c3nc(N4CCOC[C@H]4C)c(F)c(=O)n3CC[C@H]2C(F)(F)F)n1 [Example 19, (S)-3-Fluoro-2-((R)-3-methylmorpholin-4-yl)-9-(3-methyl-[1,2,4]oxadiazol-5-yl-methyl)-8-trifluoromethyl-6,7,8,9-tetrahydro-pyrimido[1,2-a]-pyrimidin-4-one] | < 0.01 µM
4 | COCCN1c2nc(N3CCOC[C@H]3C)c(F)c(=O)n2CC[C@H]1C(F)(F)F [Example 20, (S)-3-Fluoro-9-(2-methoxy-ethyl)-2-((R)-3-methylmorpholin-4-yl)-8-trifluoromethyl-6,7,8,9-tetrahydro-pyrimido[1,2-a]-pyrimidin-4-one] | < 0.01 µM
5 | Cc1nc(CN2CC[C@H](C(F)(F)F)n3c2nc(N2CCOC[C@H]2C)c(F)c3=O)no1 [Example 21, (R)-3-Fluoro-2-((R)-3-methylmorpholin-4-yl)-9-(5-methyl-[1,2,4]oxadiazol-3-yl-methyl)-6-trifluoromethyl-6,7,8,9-tetrahydro-pyrimido[1,2-a]-pyrimidin-4-one] | < 0.01 µM
6 | CCC(=O)CN1c2nc(N3CCOC[C@H]3C)c(F)c(=O)n2CC[C@H]1C(F)(F)F [Example 22, (S)-3-Fluoro-2-((R)-3-methylmorpholin-4-yl)-9-(2-oxobutyl)-8-trifluoromethyl-6,7,8,9-tetrahydro-pyrimido[1,2-a]-pyrimidin-4-one] | < 0.01 µM
7 | CON(C)C(=O)CN1c2nc(N3CCOC[C@H]3C)c(F)c(=O)n2CC[C@H]1C(F)(F)F [Example 23, 2-[(S)-7-Fluoro-8-((R)-3-methylmorpholin-4-yl)-6-oxo-2-trifluoromethyl-3,4-dihydro-2H,6H-pyrimido[1,2-a]-pyrimidin-1-yl]-N-methoxy-N-methyl-acetamide] | < 0.01 µM
8 | C[C@@H]1COCCN1c1cc(=O)n2c(n1)N(Cc1ccc(F)nc1)[C@H](C(F)(F)F)CC2 [Example 24, (S)-9-(6-Fluoropyridin-3-ylmethyl)-2-((R)-3-methylmorpholin-4-yl)-8-trifluoromethyl-6,7,8,9-tetrahydro-pyrimido[1,2-a]-pyrimidin-4-one] | < 0.01 µM
9 | C[C@@H]1COCCN1c1cc(=O)n2c(n1)N(CC(=O)c1ccnc(F)c1)[C@H](C(F)(F)F)CC2 [Example 25, (S)-9-[2-(2-Fluoro-pyridin-4-yl)-2-oxo-ethyl]-2-((R)-3-methyl-morpholin-4-yl)-8-trifluoromethyl-6,7,8,9-tetrahydro-pyrimido[1,2-a]-pyrimidin-4-one] | < 0.01 µM
10 | CCC(=O)CN1CC[C@H](C(F)(F)F)n2c1nc(N1CCOC[C@H]1C)cc2=O [Example 26, (R)-2-((R)-3-Methyl-morpholin-4-yl)-9-(2-oxobutyl)-6-trifluoromethyl-6,7,8,9-tetrahydro-pyrimido[1,2-a]-pyrimidin-4-one] | < 0.01 µM
11 | Cc1nc(CN2CC[C@H](C(F)(F)F)n3c2nc(N2CCOC[C@H]2C)cc3=O)no1 [Example 27, (R)-2-((R)-3-Methyl-morpholin-4-yl)-9-(5-methyl-[1,2,4]oxadiazol-3-yl-methyl)-6-trifluoromethyl-6,7,8,9-tetrahydro-pyrimido[1,2-a]-pyrimidin-4-one] | < 0.01 µM
12 | C[C@@H]1COCCN1c1nc2n(c(=O)c1F)[C@@H](C(F)(F)F)CCN2Cc1nc(C(F)(F)F)no1 [Example 28, (R)-3-Fluoro-2-((R)-3-methylmorpholin-4-yl)-6-trifluoromethyl-9-(3-trifluoromethyl-[1,2,4]oxadiazol-5-yl-methyl)-6,7,8,9-tetrahydro-pyrimido[1,2-a]-pyrimidin-4-one] | < 0.01 µM
13 | CCC(=O)CN1CC[C@H](C(F)(F)F)n2c1nc(N1CCOC[C@H]1C)c(F)c2=O [Example 29, (R)-3-Fluoro-2-((R)-3-methylmorpholin-4-yl)-9-(2-oxobutyl)-6-trifluoromethyl-6,7,8,9-tetrahydro-pyrimido[1,2-a]-pyrimidin-4-one] | < 0.01 µM
14 | Cc1nc(CN2c3nc(N4CCOC[C@H]4C)c(F)c(=O)n3C[C@@]2(C)C(F)(F)F)no1 [Example 30, (S)-6-Fluoro-2-methyl-7-((R)-3-methyl-morpholin-4-yl)-1-(5-methyl-[1,2,4]oxadiazol-3-yl-methyl)-2-trifluoromethyl-2,3-dihydro-1H-imidazo[1,2-a]-pyrimidin-5-one] | < 0.01 µM
15 | C[C@@H]1COCCN1c1cc(=O)n2c(n1)N(CC(=O)C1CC1)[C@](C)(C(F)(F)F)C2 [Example 31, (S)-1-(2-Cyclopropyl-2-oxoethyl)-2-methyl-7-((R)-3-methyl-morpholin-4-yl)-2-trifluoromethyl-2,3-dihydro-1H-imidazo[1,2-a]-pyrimidin-5-one] | < 0.01 µM
16 | C[C@@H]1COCCN1c1cc(=O)n2c(n1)N(Cc1ccn(C(F)F)n1)[C@H](C(F)(F)F)CC2 [Example 32, (S)-9-(1-Difluoromethyl-1H-pyrazol-3-ylmethyl)-2-((R)-3-methyl-morpholin-4-yl)-8-trifluoromethyl-6,7,8,9-tetrahydro-pyrimido[1,2-a]-pyrimidin-4-one] | < 0.01 µM
17 | C[C@@H]1COCCN1c1cc(=O)n2c(n1)N(Cc1ccon1)[C@H](C(F)(F)F)CC2 [Example 33, (S)-9-Isoxazol-3-yl-methyl-2-((R)-3-methylmorpholin-4-yl)-8-trifluoromethyl-6,7,8,9-tetrahydro-pyrimido[1,2-a]-pyrimidin-4-one] | < 0.01 µM
18 | C[C@@H]1COCCN1c1cc(=O)n2c(n1)N(Cc1cnc(Cl)s1)[C@H](C(F)(F)F)CC2 [Example 34, (S)-9-(2-Chloro-thiazol-5-ylmethyl)-2-((R)-3-methyl-morpholin-4-yl)-8-trifluoromethyl-6,7,8,9-tetrahydro-pyrimido[1,2-a]-pyrimidin-4-one] | 0.01 to 0.1 µM
19 | C[C@@H]1COCCN1c1cc(=O)n2c(n1)N(Cc1ccc(Cl)nc1)[C@H](C(F)(F)F)CC2 [Example 35, (S)-9-(6-Chloro-pyridin-3-ylmethyl)-2-((R)-3-methyl-morpholin-4-yl)-8-trifluoromethyl-6,7,8,9-tetrahydro-pyrimido[1,2-a]-pyrimidin-4-one] | < 0.01 µM
20 | C[C@@H]1COCCN1c1cc(=O)n2c(n1)N(Cc1ccno1)[C@H](C(F)(F)F)CC2 [Example 36, (S)-9-Isoxazol-5-yl-methyl-2-((R)-3-methylmorpholin-4-yl)-8-trifluoromethyl-6,7,8,9-tetrahydro-pyrimido[1,2-a]-pyrimidin-4-one] | < 0.01 µM
21 | C[C@@H]1COCCN1c1cc(=O)n2c(n1)N(Cc1ccnn1C(F)F)[C@H](C(F)(F)F)CC2 [Example 37, (S)-9-(2-Difluoromethyl-2H-pyrazol-3-ylmethyl)-2-((R)-3-methyl-morpholin-4-yl)-8-trifluoromethyl-6,7,8,9-tetrahydro-pyrimido[1,2-a]-pyrimidin-4-one] | < 0.01 µM
